In patent US8586292B2, “Methods for identifying compounds for treatment of thrombotic condition” (priority 2002, dated 2013):

Tests used:
Assay type in all cases: cell-based
platelets [1] = assay: Clot lysis in the presence of platelets (t-PA/Glu-plasminogen, fluorescent fibrinogen release); settings: for Clot Lysis in the Presence of Platelets (value relative to control designated as 1): 90 min 37 C, t-PA 2 U/ml, Glu-plasminogen 20 ug/ml; for fibrinolysis of clots, of that of the control: clots made and lysed in the presence of platelets
Description: To assess the effect of piceatannol and calpeptin on the fibrinolytic effect of t-PA and plasminogen in the presence of platelets, we designed a two step procedure by modifying the fibrinolytic assay as described by Fay et al. (Blood, 83, 351-356, 1994). First, we developed a retracted clot in the presence of fluorescence tagged fibrinogen in tubes containing platelets by the addition of thrombin. The residual fluid was taken out and platelets were added to each tube either treated with piceatannol, calpeptin and the vehicle control DMSO respectively. Glu-plasminogen, t-PA were added and the reaction was started by the addition of thrombin. After 90 minutes, the fluid from each tube was taken out and put in separate microfuge tubes followed by centrifugation. The detection of fluorescence in the supernatant was a measure of clot lysis. To form the clot, Oregon green 488 conjugated fibrinogen (fluorescent, from Molecular Probe) at 300 nM final concentration, 1 mM Ca^2+, 2 mM Mg^2+, was added to platelets at 2×10^8/ml concentration in 0.5 ml. The clot retraction was started with the addition of 0.5 unit/ml thrombin. The tubes were kept at 37° C. in dark for 1 hour until the clot retraction was complete. The residual fluid was taken out from each tube. To initiate clot lysis, platelets at 2×10^8/ml concentration were treated with either 40 ug/ml piceatannol, 200 ug/ml calpeptin or vehicle DMSO. In 0.25 ml of each, Glu-plasminogen was added to a final concentration of 20 μg/ml, and t-PA was added to a final concentration of 2 U/ml. The reaction was started with the addition of thrombin at final concentration of 0.5 U/ml. The tubes were kept at 37° C. for 90 minutes. The fluid from each tube was taken in separate microfuge tubes and centrifuged at cold at 14000 rpm for 10 minutes. The supernatants were isolated. Each supernatant was diluted to 5 times and fluorescence in each sample was measured at excitation: 495 nm and emission: 525 nm.

platelets [2] = assay: Inhibition of clot retraction (thrombin-induced, platelets with fibrinogen)
Description: Platelets (2×10^8 platelets/ml) were incubated with either piceatannol at a final concentration of 40 μg/ml, calpeptin at a final concentration of 200 μg/ml, or vehicle DMSO for 30 minutes in the dark. To each sample, fibrinogen was added to a final concentration of 300 nM, 1 mM Ca^2+, and 2 mM Mg^2+, 10 minutes prior to the addition of 0.5 unit/ml of thrombin. The clots were incubated for 30 minutes at 37° C. and then transferred to ice before taking photographs. Tubes: 1, vehicle control treated sample without the addition of thrombin; 2, vehicle control treated sample; 3, piceatannol treated sample; 4, calpeptin treated sample.
To determine the effect of the syk kinase inhibitor piceatannol and the calpain inhibitor calpeptin, the following experiments were carried out. Platelets (2×10^8 platelets/ml) were incubated with either piceatannol at a final concentration of 40 μg/ml, calpeptin at a final concentration of 200 μg/ml, or vehicle DMSO for 30 minutes in the dark. To each sample, fibrinogen was added to a final concentration of 300 nM, 1 mM Ca^2+, and 2 mM Mg^2+, 10 minutes prior to the addition of 0.5 unit/ml of thrombin. The clots were incubated for 30 minutes at 37° C. and then transferred to ice before taking photographs. […]

platelets [3] = assay: Nitric oxide production from platelets (NO-501 monitor, TRAP-stimulated); settings: 200 ug/ml, 20 uM TRAP, read for 300 seconds
Description: FIGS. 2A and 2B show the effect of calpeptin on NO production. Platelets at 2×10^8/ml were pre-incubated with either calpeptin at final concentration 200 ug/ml or vehicle DMSO for 30 minutes in the dark. To a final volume of 0.5 ml, fibrinogen was added to a final concentration of 1 mg/ml, 1 mM Ca^2+, and 2 mM Mg^2+, and […]) to a final concentration of 20 μM. The tube was placed in the NO-501 monitor to measure NO production and the platelets are stirred with a magnetic stirrer. TRAP (Thrombin Receptor Agonist Peptide) at a final concentration of 20 μM was added to start the reaction. […] The readings were taken for 300 seconds (5 minutes). FIGS. 3A and 3B show the effect of piceatannol on NO production. Platelets at 2×10^8/ml were pre-incubated with either piceatannol at final concentration 2.5 ug/ml or vehicle DMSO for 30 minutes in the dark. To a final volume of 0.5 ml, fibrinogen was added to a final concentration of 1 mg/ml, 1 mM Ca^2+, and 2 mM Mg^2+, and GPRP to a final concentration of 20 μM. The tube was placed in the NO-501 monitor to measure NO production and the platelets are stirred with a magnetic stirrer. TRAP (Thrombin Receptor Agonist Peptide) at a final concentration of 20 μM was added to start the reaction. […] The readings were taken for 300 seconds (5 minutes). […]

platelets [4] = assay: Platelet aggregation (TRAP-stimulated, recorded together with NO production); settings: 200 ug/ml
Description: (§1) FIGS. 2A and 2B show the effect of calpeptin on NO production. Platelets at 2×10^8/ml were pre-incubated with either calpeptin at final concentration 200 ug/ml or vehicle DMSO for 30 minutes in the dark. To a final volume of 0.5 ml, fibrinogen was added to a final concentration of 1 mg/ml, 1 mM Ca^2+, and 2 mM Mg^2+, and GPRP (gly-pro-arg-pro) to a final concentration of 20 μM. The tube was placed in the NO-501 monitor to measure NO production and the platelets are stirred with a magnetic stirrer. TRAP (Thrombin Receptor Agonist Peptide) at a final concentration of 20 μM was added to start the reaction. […] The readings were taken for 300 seconds (5 minutes).
as §1, with “Platelets” for “FIGS. 2A and 2B show the effect of calpeptin on NO production. Platelets”, “GPRP” for “GPRP (gly-pro-arg-pro)”

## Oc1cc(O)cc(/C=C/c2ccc(O)c(O)c2)c1 [piceatannol]
Platelets [1]; 40 ug/ml
  Clot Lysis in the Presence of Platelets (value relative to control designated as 1): 6.2
  fibrinolysis of clots, of that of the control: about 600%

## CC(C)(C)n1nc(-c2ccc(Cl)cc2)c2c(N)ncnc21 [PP2]
Platelets [2]; 10 uM (data not shown)
  effect on clot retraction: did not have any effect on clot retraction

## CCCC[C@@H](C=O)NC(=O)[C@H](CC(C)C)NC(=O)OCc1ccccc1 [calpeptin]
Platelets [3]
  NO production: increased and sustained NO production
Platelets [2]; 200 ug/ml, 30 min pre-incubation, 0.5 unit/ml thrombin, 30 min 37 C
  effect on clot retraction: inhibited platelet mediated clot retraction
Platelets [4]
  effect on platelet aggregation: inhibits both platelet aggregation and clot retraction
Platelets [1]; 200 ug/ml
  Clot Lysis in the Presence of Platelets (value relative to control designated as 1): 6.2
  fibrinolysis of clots, of that of the control: about 600%
